Here are results for one molecule from patent publication US20250295577A1, “EXTRACT OF YOUNG FLOWERS AND COSMETIC USES” (SOCIETE INDUSTRIELLE LIMOUSINE D'APPLICATION BIOLOGIQUE, priority 2021, published 2025).

This test has as its system human fibroblasts derived from older donors. Kind of test: Cell migration of human fibroblasts (wound, crystal violet, occupied surface). The format is cell-based. Particulars: for Cell migration: vs older control (Table 5). How it is done:
Cell migration is the ability of certain cells to move. In vitro, it is evaluated by the number of cells covering a surface that is initially empty (Kim et al., 2015; Lampugnani, 1999). The migratory capacity of the cells is reduced with age (Boulter et al., 2013).
Their action was studied on a human fibroblast culture derived from older donors.
On D0, the human fibroblasts are seeded and incubated at 37° C.
After several days of culture, the insert is removed from the culture chamber, creating a wound. The cells are treated with an active ingredient according to the invention or the red flower extract or a solution of N-(1-deoxy-1-fructosyl)-proline then incubated at 37° C.
After several days of culture, the cells are stained with a crystal violet solution at 0.5% (M/V). The viewing is done with an AxioCam MRc camera with microscope coupled to an image analysis system.
The surface ratio occupied by the cells is calculated automatically using software.

`O=C(CN1CCCC1C(=O)O)C(O)C(O)C(O)CO` (stereo not shown) [N-(1-deoxy-1-fructosyl)-proline]: the Occupied surface ratio by setting is: (1.5 ppm (Table 5)) 0.266 UA; (5 ppm (Table 5)) 0.328 UA. Also, the Cell migration reads like this: (1.5 ppm) 0%; (5 ppm) “+19%”.
